# Laboratory results taken from PubChem BioAssay (NCI).
#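 Where inhibition never reached the appropriate level, the endpoint shown equals the highest concentration tested. Otherwise, values were interpolated linearly from a five-concentration, 48-hour dose response in 96-well plates. The concentration for full growth arrest is given as TGI.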
# How the values were obtained:
# Experiment in all cases: inhibition of tumour cell growth, NCI panel, 48 h
# A549 NSCLC = tested on: A549 NSCLC
# PC-3 prostate = tested on: PC-3 prostate
# MOLT-4 leukemia = tested on: MOLT-4 leukemia
# SK-MEL-5 melanoma = tested on: SK-MEL-5 melanoma
# ACHN renal = tested on: ACHN renal
# RXF 393 renal = tested on: RXF 393 renal
# U251 CNS = tested on: U251 CNS
# UACC-257 melanoma = tested on: UACC-257 melanoma
# K-562 leukemia = tested on: K-562 leukemia
# DU-145 prostate = tested on: DU-145 prostate
# HS 578T breast = tested on: HS 578T breast
# A498 renal = tested on: A498 renal
# BT-549 breast = tested on: BT-549 breast
# CAKI-1 renal = tested on: CAKI-1 renal
# SF-539 CNS = tested on: SF-539 CNS
# SK-MEL-28 melanoma = tested on: SK-MEL-28 melanoma
# HL-60(TB) leukemia = tested on: HL-60(TB) leukemia
# T-47D breast = tested on: T-47D breast
# OVCAR-3 ovarian = tested on: OVCAR-3 ovarian
# HCT-116 colon = tested on: HCT-116 colon
# NCI-H522 lung = tested on: NCI-H522 lung
# MCF7 breast = tested on: MCF7 breast
# M14 melanoma = tested on: M14 melanoma
# IGROV1 ovarian = tested on: IGROV1 ovarian
# CCRF-CEM leukemia = tested on: CCRF-CEM leukemia
# MDA-MB-435 = tested on: MDA-MB-435
# SW-620 colon = tested on: SW-620 colon
# EKVX NSCLC = tested on: EKVX NSCLC
# OVCAR-8 ovarian = tested on: OVCAR-8 ovarian
# SF-295 CNS = tested on: SF-295 CNS
# MALME-3M melanoma = tested on: MALME-3M melanoma
# UACC-62 melanoma = tested on: UACC-62 melanoma
# UO-31 renal = tested on: UO-31 renal
# HT29 colon = tested on: HT29 colon
# TK-10 renal = tested on: TK-10 renal
# KM12 colon = tested on: KM12 colon
# COLO 205 colon = tested on: COLO 205 colon
# OVCAR-5 ovarian = tested on: OVCAR-5 ovarian
# MDA-MB-231 breast = tested on: MDA-MB-231 breast
# NCI-H23 lung = tested on: NCI-H23 lung
# SN12C renal = tested on: SN12C renal
# NCI/ADR-RES ovarian = tested on: NCI/ADR-RES ovarian
# 786-0 renal = tested on: 786-0 renal
# RPMI-8226 leukemia = tested on: RPMI-8226 leukemia
# HOP-62 NSCLC = tested on: HOP-62 NSCLC
# SK-MEL-2 melanoma = tested on: SK-MEL-2 melanoma
# SF-268 CNS = tested on: SF-268 CNS
# LOX IMVI melanoma = tested on: LOX IMVI melanoma
# OVCAR-4 ovarian = tested on: OVCAR-4 ovarian
# SNB-19 CNS = tested on: SNB-19 CNS
# MDA-N = tested on: MDA-N
# HOP-92 NSCLC = tested on: HOP-92 NSCLC
# HCT-15 colon = tested on: HCT-15 colon
# NCI-H226 lung = tested on: NCI-H226 lung
# HCC-2998 colon = tested on: HCC-2998 colon
# SNB-75 CNS = tested on: SNB-75 CNS
# NCI-H460 lung = tested on: NCI-H460 lung
# SK-OV-3 ovarian = tested on: SK-OV-3 ovarian
structure (smiles),measurement,setting,value
C[C@@H](C(=O)O)N1C(c2ccco2)=C(/C(C=O)=C\c2ccco2)C(=O)/C1=C\c1ccco1,TGI,A549 NSCLC,> 100 µM
same,TGI,PC-3 prostate,> 100 µM
same,TGI,MOLT-4 leukemia,> 100 µM
same,TGI,SK-MEL-5 melanoma,> 100 µM
same,TGI,ACHN renal,> 100 µM
same,TGI,RXF 393 renal,> 100 µM
same,TGI,U251 CNS,> 100 µM
same,TGI,UACC-257 melanoma,> 100 µM
same,TGI,K-562 leukemia,> 100 µM
same,TGI,DU-145 prostate,> 100 µM
same,TGI,HS 578T breast,> 100 µM
same,TGI,A498 renal,> 100 µM
same,TGI,BT-549 breast,> 100 µM
same,TGI,CAKI-1 renal,> 100 µM
same,TGI,SF-539 CNS,> 100 µM
same,TGI,SK-MEL-28 melanoma,> 100 µM
same,TGI,HL-60(TB) leukemia,> 100 µM
same,TGI,T-47D breast,> 100 µM
same,TGI,OVCAR-3 ovarian,> 100 µM
same,TGI,HCT-116 colon,> 100 µM
same,TGI,NCI-H522 lung,> 100 µM
same,TGI,MCF7 breast,> 100 µM
same,TGI,M14 melanoma,> 100 µM
same,TGI,IGROV1 ovarian,> 100 µM
same,TGI,CCRF-CEM leukemia,> 100 µM
same,TGI,MDA-MB-435,> 100 µM
same,TGI,SW-620 colon,> 100 µM
same,TGI,EKVX NSCLC,> 100 µM
same,TGI,OVCAR-8 ovarian,> 100 µM
same,TGI,SF-295 CNS,> 100 µM
same,TGI,MALME-3M melanoma,> 100 µM
same,TGI,UACC-62 melanoma,> 100 µM
same,TGI,UO-31 renal,> 100 µM
same,TGI,HT29 colon,> 100 µM
same,TGI,TK-10 renal,> 100 µM
same,TGI,KM12 colon,> 100 µM
same,TGI,COLO 205 colon,> 100 µM
same,TGI,OVCAR-5 ovarian,> 100 µM
same,TGI,MDA-MB-231 breast,> 100 µM
same,TGI,NCI-H23 lung,> 100 µM
same,TGI,SN12C renal,> 100 µM
same,TGI,NCI/ADR-RES ovarian,> 100 µM
same,TGI,786-0 renal,> 100 µM
same,TGI,RPMI-8226 leukemia,> 100 µM
same,TGI,HOP-62 NSCLC,> 100 µM
same,TGI,SK-MEL-2 melanoma,> 100 µM
same,TGI,SF-268 CNS,> 100 µM
same,TGI,LOX IMVI melanoma,> 100 µM
same,TGI,OVCAR-4 ovarian,> 100 µM
same,TGI,SNB-19 CNS,> 100 µM
same,TGI,MDA-N,> 100 µM
same,TGI,HOP-92 NSCLC,> 100 µM
same,TGI,HCT-15 colon,> 100 µM
COc1cc2c(cc1O)c(O)cc1c3cc(OC)c(OC)cc3c[n+](C)c21,TGI,A549 NSCLC,> 100 µM
same,TGI,PC-3 prostate,> 100 µM
same,TGI,MOLT-4 leukemia,40.3 µM
same,TGI,SK-MEL-5 melanoma,40.2 µM
same,TGI,ACHN renal,> 100 µM
same,TGI,RXF 393 renal,> 100 µM
same,TGI,U251 CNS,4.57 µM
same,TGI,UACC-257 melanoma,> 100 µM
same,TGI,K-562 leukemia,> 80.5 µM
same,TGI,DU-145 prostate,> 43.7 µM
same,TGI,HS 578T breast,> 27.4 µM
same,TGI,A498 renal,> 100 µM
same,TGI,BT-549 breast,> 100 µM
same,TGI,CAKI-1 renal,> 100 µM
same,TGI,SF-539 CNS,> 100 µM
same,TGI,SK-MEL-28 melanoma,> 100 µM
same,TGI,NCI-H226 lung,> 25.6 µM
same,TGI,T-47D breast,> 80.3 µM
same,TGI,OVCAR-3 ovarian,> 100 µM
same,TGI,HCT-116 colon,> 100 µM
same,TGI,NCI-H522 lung,25.2 µM
same,TGI,MCF7 breast,> 100 µM
same,TGI,M14 melanoma,> 100 µM
same,TGI,CCRF-CEM leukemia,> 100 µM
same,TGI,HCC-2998 colon,> 100 µM
same,TGI,MDA-MB-435,30.9 µM
same,TGI,SW-620 colon,> 100 µM
same,TGI,EKVX NSCLC,> 100 µM
same,TGI,OVCAR-8 ovarian,> 79 µM
same,TGI,SF-295 CNS,> 100 µM
same,TGI,MALME-3M melanoma,> 100 µM
same,TGI,UACC-62 melanoma,> 100 µM
same,TGI,UO-31 renal,> 100 µM
same,TGI,SNB-75 CNS,> 100 µM
same,TGI,NCI-H460 lung,> 100 µM
same,TGI,HT29 colon,> 61.4 µM
same,TGI,TK-10 renal,> 100 µM
same,TGI,KM12 colon,> 100 µM
same,TGI,COLO 205 colon,> 100 µM
same,TGI,OVCAR-5 ovarian,> 100 µM
same,TGI,MDA-MB-231 breast,> 67.9 µM
same,TGI,NCI-H23 lung,29.5 µM
same,TGI,NCI/ADR-RES ovarian,> 100 µM
same,TGI,786-0 renal,> 100 µM
same,TGI,RPMI-8226 leukemia,> 100 µM
same,TGI,HOP-62 NSCLC,> 100 µM
same,TGI,SK-MEL-2 melanoma,> 100 µM
same,TGI,SF-268 CNS,> 100 µM
same,TGI,LOX IMVI melanoma,> 55.2 µM
same,TGI,OVCAR-4 ovarian,> 100 µM
same,TGI,SNB-19 CNS,> 100 µM
same,TGI,MDA-N,35.7 µM
same,TGI,SK-OV-3 ovarian,> 100 µM
same,TGI,HCT-15 colon,> 100 µM
